Measurements reported in patent US20250250230A1, “HETEROCYCLIC COMPOUND” (TAKEDA PHARMACEUTICAL COMPANY LIMITED, priority 2022, published 2025).

Biological target: T1, human orexin type 2 receptor (Homo sapiens, UniProt O43614)
T1 construct: expressed in transfected cells
T1 sequence (O43614 1-444): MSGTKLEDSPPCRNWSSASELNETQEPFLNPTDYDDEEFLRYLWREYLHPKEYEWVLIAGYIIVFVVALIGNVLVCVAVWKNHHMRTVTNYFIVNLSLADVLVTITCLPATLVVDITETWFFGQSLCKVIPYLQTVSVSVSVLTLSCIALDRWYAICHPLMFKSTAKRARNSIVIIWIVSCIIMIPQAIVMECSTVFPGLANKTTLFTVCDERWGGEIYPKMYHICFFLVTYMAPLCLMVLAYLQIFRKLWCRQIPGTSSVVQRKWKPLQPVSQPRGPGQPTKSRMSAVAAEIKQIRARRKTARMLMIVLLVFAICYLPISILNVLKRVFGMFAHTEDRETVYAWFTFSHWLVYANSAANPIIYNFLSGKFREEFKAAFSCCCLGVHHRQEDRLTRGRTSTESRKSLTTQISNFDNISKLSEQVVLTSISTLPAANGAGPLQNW
Experiment: Measurement of orexin type 2 receptor agonist activity (calcium fluorescence, Fluo-4 AM, FDSS)
Format: cell-based
Details: test compound 3 μM; CHO cells expressing human OX2 receptor; DMSO = 0%, orexin A (human) = 100%
How it was run: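 CHO-K1 cells stably expressing human OX2R were loaded with Fluo-4 AM (30 min 37 °C, 30 min RT) in HEPES-buffered HBSS with 0.1% BSA and probenecid. Calcium fluorescence was followed on FDSS for 2 min after compound addition; activity normalised to DMSO (0%) and 10 nM orexin A (100%).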

OX2R agonist activity (3 μM, %) [%] | Structure (SMILES)
100 | O=C(C1CC1c1ccccc1-c1c(F)cccc1F)N1CCCC(NS(=O)(=O)C2CC2)C1 (racemic) [Example 123, a mixture of rac-N-{(3R)-1-[(1R,2R)-2-(2′,6′-difluoro[1,1′-biphenyl]-2-yl)cyclopropane-1-carbonyl]piperidin-3-yl}cyclopropanesulfonamide and rac-N-{(3S)-1-[(1R,2R)-2-(2′,6′-difluoro[1,1′-biphenyl]-2-yl)cyclopropane-1-carbonyl]piperidin-3-yl}cyclopropanesulfonamide]
104 | CS(=O)(=O)NC12CC1CN(C(=O)C1CC1c1ccccc1-c1c(F)cccc1F)C2 (racemic) [Example 124, a mixture of rac-N-{(1S,5R)-3-[(1R,2R)-2-(2′,6′-difluoro[1,1′-biphenyl]-2-yl)cyclopropane-1-carbonyl]-3-azabicyclo[3.1.0]hexan-1-yl}methanesulfonamide and rac-N-{(1R,5S)-3-[(1R,2R)-2-(2′,6′-difluoro[1,1′-biphenyl]-2-yl)cyclopropane-1-carbonyl]-3-azabicyclo[3.1.0]hexan-1-yl}methanesulfonamide]
89 | CS(=O)(=O)NC1CCN(C(=O)C2CC2c2c(F)cccc2-c2ccccc2Cl)C1 (racemic) [Example 126, a mixture of rac-N-{(3R)-1-[(1R,2R)-2-(2′-chloro-3-fluoro[1,1′-biphenyl]-2-yl)cyclopropane-1-carbonyl]pyrrolidin-3-yl}methanesulfonamide and rac-N-{(3S)-1-[(1R,2R)-2-(2′-chloro-3-fluoro[1,1′-biphenyl]-2-yl)cyclopropane-1-carbonyl]pyrrolidin-3-yl}methanesulfonamide]
57 | CS(=O)(=O)NCC1CCN1C(=O)C1CC1c1ccccc1-c1c(F)cccc1F (racemic) [Example 127, a mixture of rac-N-({(2R)-1-[(1R,2R)-2-(2′,6′-difluoro[1,1′-biphenyl]-2-yl)cyclopropane-1-carbonyl]azetidin-2-yl}methyl)methanesulfonamide and rac-N-({(2S)-1-[(1R,2R)-2-(2′,6′-difluoro[1,1′-biphenyl]-2-yl)cyclopropane-1-carbonyl]azetidin-2-yl}methyl)methanesulfonamide]
89 | CS(=O)(=O)NCC1CCCN(C(=O)C2CC2c2ccccc2-c2c(F)cccc2F)C1 (racemic) [Example 128, a mixture of rac-N-({(3R)-1-[(1R,2R)-2-(2′,6′-difluoro[1,1′-biphenyl]-2-yl)cyclopropane-1-carbonyl]piperidin-3-yl}methyl)methanesulfonamide and rac-N-({(3S)-1-[(1R,2R)-2-(2′,6′-difluoro[1,1′-biphenyl]-2-yl)cyclopropane-1-carbonyl]piperidin-3-yl}methyl)methanesulfonamide]
101 | CS(=O)(=O)NC1CN(C(=O)C2CC2c2ccccc2-c2c(F)cccc2F)CCC1(F)F (racemic) [Example 129, a mixture of rac-N-{(3R)-1-[(1R,2R)-2-(2′,6′-difluoro[1,1′-biphenyl]-2-yl)cyclopropane-1-carbonyl]-4,4-difluoropiperidin-3-yl}methanesulfonamide and rac-N-{(3S)-1-[(1R,2R)-2-(2′,6′-difluoro[1,1′-biphenyl]-2-yl)cyclopropane-1-carbonyl]-4,4-difluoropiperidin-3-yl}methanesulfonamide]
87 | CS(=O)(=O)NC1CN(C(=O)C2CC2c2ccccc2-c2c(F)cccc2F)CC1(F)F (racemic) [Example 130, a mixture of rac-N-{(3R)-1-[(1R,2R)-2-(2′,6′-difluoro[1,1′-biphenyl]-2-yl)cyclopropane-1-carbonyl]-4,4-difluoropyrrolidin-3-yl}methanesulfonamide and rac-N-{(3S)-1-[(1R,2R)-2-(2′,6′-difluoro[1,1′-biphenyl]-2-yl)cyclopropane-1-carbonyl]-4,4-difluoropyrrolidin-3-yl}methanesulfonamide]
74 | CS(=O)(=O)NC1CCN(C(=O)C2CC2c2ccc(F)cc2-c2ccccc2Cl)C1 (racemic) [Example 134, a mixture of rac-N-{(3R)-1-[(1R,2R)-2-(2′-chloro-5-fluoro[1,1′-biphenyl]-2-yl)cyclopropane-1-carbonyl]pyrrolidin-3-yl}methanesulfonamide and rac-N-{(3S)-1-[(1R,2R)-2-(2′-chloro-5-fluoro[1,1′-biphenyl]-2-yl)cyclopropane-1-carbonyl]pyrrolidin-3-yl}methanesulfonamide]
111 | CS(=O)(=O)NC1CCN(C(=O)C2CC2c2ccc(F)cc2-c2c(F)cccc2F)C1 (racemic) [Example 135, a mixture of rac-N-{(3R)-1-[(1R,2R)-2-(2′,5,6′-trifluoro[1,1′-biphenyl]-2-yl)cyclopropane-1-carbonyl]pyrrolidin-3-yl}methanesulfonamide and rac-N-{(3S)-1-[(1R,2R)-2-(2′,5,6′-trifluoro[1,1′-biphenyl]-2-yl)cyclopropane-1-carbonyl]pyrrolidin-3-yl}methanesulfonamide]
110 | Cc1ccc(C2CC2C(=O)N2CCC(NS(C)(=O)=O)C2)c(-c2c(F)cccc2F)c1 (racemic) [Example 136, a mixture of rac-N-{(3R)-1-[(1R,2R)-2-(2′,6′-difluoro-5-methyl[1,1′-biphenyl]-2-yl)cyclopropane-1-carbonyl]pyrrolidin-3-yl}methanesulfonamide and rac-N-{(3S)-1-[(1R,2R)-2-(2′,6′-difluoro-5-methyl[1,1′-biphenyl]-2-yl)cyclopropane-1-carbonyl]pyrrolidin-3-yl}methanesulfonamide]
59 | CS(=O)(=O)NC1CN(C(=O)C2CC2c2ccccc2-c2c(F)cccc2F)CC1F (racemic) [Example 137, a mixture of rac-N-{(3S,4R)-1-[(1R,2R)-2-(2′,6′-difluoro[1,1′-biphenyl]-2-yl)cyclopropane-1-carbonyl]-4-fluoropyrrolidin-3-yl}methanesulfonamide and rac-N-{(3R,4S)-1-[(1R,2R)-2-(2′,6′-difluoro[1,1′-biphenyl]-2-yl)cyclopropane-1-carbonyl]-4-fluoropyrrolidin-3-yl}methanesulfonamide]
94 | Cc1ccc(C2CC2C(=O)N2CCC(NS(C)(=O)=O)C2)c(-c2ccccc2Cl)c1 (racemic) [Example 145, a mixture of rac-N-{(3R)-1-[(1R,2R)-2-(2′-chloro-5-methyl[1,1′-biphenyl]-2-yl)cyclopropane-1-carbonyl]pyrrolidin-3-yl}methanesulfonamide and rac-N-{(3S)-1-[(1R,2R)-2-(2′-chloro-5-methyl[1,1-biphenyl]-2-yl)cyclopropane-1-carbonyl]pyrrolidin-3-yl}methanesulfonamide]
95 | CS(=O)(=O)NC1CCCN(C(=O)C2CC2c2ccc(F)cc2-c2c(F)cccc2F)C1 (racemic) [Example 152, a mixture of rac-N-{(3R)-1-[(1R,2R)-2-(2′,5,6′-trifluoro[1,1′-biphenyl]-2-yl)cyclopropane-1-carbonyl]piperidin-3-yl}methanesulfonamide and rac-N-{(3S)-1-[(1R,2R)-2-(2′,5,6′-trifluoro[1,1′-biphenyl]-2-yl)cyclopropane-1-carbonyl]piperidin-3-yl}methanesulfonamide]
100 | CS(=O)(=O)NC1CCCN(C(=O)C2CC2c2ccc(F)cc2-c2c(F)cccc2F)CC1 (racemic) [Example 153, a mixture of rac-N-{(4R)-1-[(1R,2R)-2-(2′,5,6′-trifluoro[1,1′-biphenyl]-2-yl)cyclopropane-1-carbonyl]azepan-4-yl}methanesulfonamide and rac-N-{(4S)-1-[(1R,2R)-2-(2′,5,6′-trifluoro[1,1′-biphenyl]-2-yl)cyclopropane-1-carbonyl]azepan-4-yl}methanesulfonamide]
106 | CC1CC(NS(C)(=O)=O)CN(C(=O)C2CC2c2ccccc2-c2c(F)cccc2F)C1 (racemic) [Example 158]
101 | CCS(=O)(=O)NC1CCCCN(C(=O)C2CC2c2ccccc2-c2c(F)cccc2F)C1 (racemic) [Example 159, a mixture of rac-N-{(3R)-1-[(1R,2R)-2-(2′,6′-difluoro[1,1′-biphenyl]-2-yl)cyclopropane-1-carbonyl]azepan-3-yl}ethanesulfonamide and rac-N-{(3S)-1-[(1R,2R)-2-(2′,6′-difluoro[1,1′-biphenyl]-2-yl)cyclopropane-1-carbonyl]azepan-3-yl}ethanesulfonamide]
99 | O=C(C1CC1c1ccccc1-c1c(F)cccc1F)N1CCCCC(NS(=O)(=O)C2CC2)C1 (racemic) [Example 161, a mixture of rac-N-{(3R)-1-[(1R,2R)-2-(2′,6′-difluoro[1,1′-biphenyl]-2-yl)cyclopropane-1-carbonyl]azepan-3-yl}cyclopropanesulfonamide and rac-N-{(3S)-1-[(1R,2R)-2-(2′,6′-difluoro[1,1′-biphenyl]-2-yl)cyclopropane-1-carbonyl]azepan-3-yl}cyclopropanesulfonamide]
